Experimental data published in US20240317708A1, “INHIBITORS OF TRANSGLUTAMINASES” (ZEDIRA GMBH, priority 2021, published 2024).

How the values were obtained:
[1] = Log D shake flask method (octanol / PBS pH 7.4, HPLC); type: physicochemical; conditions: octanol/phosphate-buffered saline (PBS); octanol / PBS pH 7.4, shake flask
Description: In order to classify the inventive compounds according to their lipophilicity, Log D values (distribution coefficient) were determined by means of the well-established shake flask method, measuring the partition of a compound between an octanol and phosphate-buffered saline (PBS, pH 7.4) by HPLC.

[2] = biological target: T1, recombinant human transglutaminase 2 (Homo sapiens, UniProt P21980); experiment: Transglutaminase assay (dansylcadaverine incorporation into dimethylcasein, DCC-assay); type: biochemical; conditions: recombinant human TG2 10 nM, dansylcadaverine/dimethylcasein, 37° C.
T1 construct: purchased Zedira T022
T1 sequence (P21980 1-687): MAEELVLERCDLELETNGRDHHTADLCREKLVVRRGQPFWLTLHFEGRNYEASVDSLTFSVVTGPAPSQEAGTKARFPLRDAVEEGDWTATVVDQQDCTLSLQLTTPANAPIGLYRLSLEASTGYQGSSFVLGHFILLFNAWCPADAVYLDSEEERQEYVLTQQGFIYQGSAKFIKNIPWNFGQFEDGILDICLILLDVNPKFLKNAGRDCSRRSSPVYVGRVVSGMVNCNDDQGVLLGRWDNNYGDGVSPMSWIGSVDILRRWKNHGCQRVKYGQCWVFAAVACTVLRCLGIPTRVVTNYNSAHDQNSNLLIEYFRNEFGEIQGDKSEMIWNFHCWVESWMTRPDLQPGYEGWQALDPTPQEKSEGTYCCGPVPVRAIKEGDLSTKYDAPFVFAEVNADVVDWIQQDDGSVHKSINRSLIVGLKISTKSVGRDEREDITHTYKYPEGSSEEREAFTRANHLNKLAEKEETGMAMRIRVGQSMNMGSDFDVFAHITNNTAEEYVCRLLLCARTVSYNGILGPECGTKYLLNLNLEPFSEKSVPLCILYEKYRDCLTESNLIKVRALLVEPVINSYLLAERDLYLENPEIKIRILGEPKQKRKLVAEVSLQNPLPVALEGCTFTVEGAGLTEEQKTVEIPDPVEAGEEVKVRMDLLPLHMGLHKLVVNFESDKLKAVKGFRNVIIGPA
Summary of the method: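 IC50 derived from fluorescence slope between 20 and 30 min (λex 330 nm, λem 500 nm, 37 °C), expressed relative to a 2% DMSO control. Reaction: 10 nM recombinant human TG2, 4 μM dimethylcasein, 16.7 μM dansylcadaverine, 10 mM CaCl2 and glutathione, pH 8.0.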

[3] = Caco-2 permeability assay (CacoReady kit); type: in vitro ADME; conditions: human
Summary of the method: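 Apparent permeability coefficients (Papp) were measured across Caco-2 cell barriers using a ready-to-use kit run per the supplier's protocol. Values serve as a predictor of oral/intestinal bioavailability.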

logD [1]	IC50 [2]	Papp [3]	Structure (SMILES)
1 to 3	< 25 nM	< 1 ×10⁻⁶ cm/s	COC(=O)/C=C/CC[C@H](NC(=O)c1cncn1C)C(=O)Nc1cccn(CC(=O)NC23CC4CC(C)(CC(C)(C4)C2)C3)c1=O [III-88, (S,E)-methyl 7-(1-(2-(3,5-dimethyladamantane)-2-oxoethyl)-2-oxo-1,2-dihydropyridin-3-ylamino)-6-(1-methyl-1H-imidazole-5-carboxamido)-7-oxohept-2-enoate]
3 to 5	< 25 nM	1 to 10 ×10⁻⁶ cm/s	COC(=O)/C=C/CC[C@H](NC(=O)c1oc2ccccc2c1C)C(=O)Nc1cccn(CC(=O)NC2C3CC4CC2CC(F)(C4)C3)c1=O (stereo partly drawn) [III-39, (S,E)-methyl 7-(1-(2-(5-fluoroadamantan-2-amino)-2-oxoethyl)-2-oxo-1,2-dihydropyridin-3-ylamino)-6-(3-methylbenzofuran-2-carboxamido)-7-oxohept-2-enoate]
3 to 5	< 25 nM	1 to 10 ×10⁻⁶ cm/s	COC(=O)/C=C/CC[C@H](NC(=O)c1cc(Cl)sc1Cl)C(=O)Nc1cccn(CC(=O)N[C@@H]2C[C@H]3CC[C@@H]2C3)c1=O [III-97, (S,E)-methyl 7-(1-(2-((1R,2R,4S)-bicyclo[2.2.1]heptan-2-ylamino)-2-oxoethyl)-2-oxo-1,2-dihydropyridin-3-ylamino)-6-(2,5-dichlorothiophene-3-carboxamido)-7-oxohept-2-enoate]
3 to 5	< 25 nM	< 1 ×10⁻⁶ cm/s	COC(=O)/C=C/CC[C@H](NC(=O)c1cc2ccccc2[nH]1)C(=O)Nc1cccn(CC(=O)NC2C3CC4CC(C3)CC2C4)c1=O (stereo partly drawn) [III-8, (S,E)-methyl 6-(1H-indole-2-carboxamido)-7-(1-(2-(2-adamantylamino)-2-oxoethyl)-2-oxo-1,2-dihydropyridin-3-ylamino)-7-oxohept-2-enoate]
1 to 3	< 25 nM	1 to 10 ×10⁻⁶ cm/s	COC(=O)/C=C/CC[C@H](NC(=O)c1oc2ccccc2c1C)C(=O)Nc1cccn(CC(=O)NC23CCC(CC2)C3)c1=O [III-64, (S,E)-methyl 7-(1-(2-(bicyclo[2.2.1]heptan-1-ylamino)-2-oxoethyl)-2-oxo-1,2-dihydropyridin-3-ylamino)-6-(3-methylbenzofuran-2-carboxamido)-7-oxohept-2-enoate]
3 to 5	25 to 250 nM	1 to 10 ×10⁻⁶ cm/s	COC(=O)/C=C/CC[C@H](NC(=O)c1oc2ccccc2c1C)C(=O)Nc1cccn(CC(=O)N(C)C2C3CC4CC(C3)CC2C4)c1=O (stereo partly drawn) [III-37, (S,E)-methyl 7-(1-(2-(2-adamantyl(methyl)amino)-2-oxoethyl)-2-oxo-1,2-dihydropyridin-3-ylamino)-6-(3-methylbenzofuran-2-carboxamido)-7-oxohept-2-enoate]
3 to 5	25 to 250 nM	1 to 10 ×10⁻⁶ cm/s	CCn1c(C(=O)N[C@@H](CC/C=C/C(=O)NC2CCCCC2)C(=O)Nc2cccn(CC(=O)NC34CC(C3)C4)c2=O)cc2ccccc21 [III-148, (S,E)-N7-(1-(2-(bicyclo[1.1.1]pentan-1-ylamino)-2-oxoethyl)-2-oxo-1,2-dihydropyridin-3-yl)-N1-cyclohexyl-6-(1-ethyl-1H-indole-2-carboxamido)hept-2-enediamide]
1 to 3	25 to 250 nM	1 to 10 ×10⁻⁶ cm/s	COC(=O)/C=C/CC[C@H](NC(=O)c1cnc(C(C)C)o1)C(=O)Nc1cccn(CC(=O)NC23CCC(C2)C3)c1=O [III-134, (S,E)-methyl 7-(1-(2-(bicyclo[2.1.1]hexan-1-ylamino)-2-oxoethyl)-2-oxo-1,2-dihydropyridin-3-ylamino)-6-(2-isopropyloxazole-5-carboxamido)-7-oxohept-2-enoate]
< 1	< 25 nM	1 to 10 ×10⁻⁶ cm/s	COC(=O)/C=C/CC[C@H](NC(=O)c1cnnn1C)C(=O)Nc1cccn(CC(=O)N[C@@H]2C[C@H]3CC[C@@H]2C3)c1=O [III-96, (S,E)-methyl 7-(1-(2-((1R,2R,4S)-bicyclo[2.2.1]heptan-2-ylamino)-2-oxoethyl)-2-oxo-1,2-dihydropyridin-3-ylamino)-6-(1-methyl-1H-1,2,3-triazole-5-carboxamido)-7-oxohept-2-enoate]
3 to 5	25 to 250 nM	1 to 10 ×10⁻⁶ cm/s	COC(=O)/C=C/CC[C@H](NC(=O)c1oc2ccccc2c1C)C(=O)Nc1cccn(CC(=O)N[C@H]2C[C@H]3CC[C@]2(C)C3(C)C)c1=O [III-61, (S,E)-methyl 6-(3-methylbenzofuran-2-carboxamido)-7-oxo-7-(2-oxo-1-(2-oxo-2-((1R,2S,4R)-1,7,7-trimethylbicyclo[2.2.1]heptan-2-ylamino)ethyl)-1,2-dihydropyridin-3-ylamino)hept-2-enoate]
3 to 5	25 to 250 nM	1 to 10 ×10⁻⁶ cm/s	Cc1c(C(=O)N[C@@H](CC/C=C/C(=O)N(C)C)C(=O)Nc2cccn(CC(=O)NC34CC5CC(C)(CC(C)(C5)C3)C4)c2=O)oc2ccccc12 [III-77, (S,E)-N^7-(1-(2-(3,5-dimethyladamantan-1-amino)-2-oxoethyl)-2-oxo-1,2-dihydropyridin-3-yl)-N^1,N^1-dimethyl-6-(3-methylbenzofuran-2-carboxamido)hept-2-enediamide]
3 to 5	< 25 nM	< 1 ×10⁻⁶ cm/s	COC(=O)/C=C/CC[C@H](NC(=O)c1ccncc1)C(=O)Nc1cccn(CC(=O)NC2C3CC4CC(C3)CC2C4)c1=O (stereo partly drawn) [III-84, (S,E)-methyl 6-(isonicotinamido)-7-(1-(2-(2-adamantylamino)-2-oxoethyl)-2-oxo-1,2-dihydropyridin-3-ylamino)-7-oxohept-2-enoate]
1 to 3	< 25 nM	< 1 ×10⁻⁶ cm/s	COC(=O)/C=C/CC[C@H](NC(=O)c1ccnn1C)C(=O)Nc1cccn(CC(=O)N[C@@H]2C[C@@H]3CC[C@H]2C3)c1=O [III-117, (S,E)-methyl 7-(1-(2-((1S,2R,4R)-bicyclo[2.2.1]heptan-2-ylamino)-2-oxoethyl)-2-oxo-1,2-dihydropyridin-3-ylamino)-6-(1-methyl-1H-pyrazole-5-carboxamido)-7-oxohept-2-enoate]
1 to 3	< 25 nM	< 1 ×10⁻⁶ cm/s	COC(=O)/C=C/CC[C@H](NC(=O)c1ccnn1C)C(=O)Nc1cccn(CC(=O)NC23CC4CC(C)(CC(C)(C4)C2)C3)c1=O [III-113, (S,E)-methyl 7-(1-(2-(3,5-dimethyladamantane-1-amino)-2-oxoethyl)-2-oxo-1,2-dihydropyridin-3-ylamino)-6-(1-methyl-1H-pyrazole-5-carboxamido)-7-oxohept-2-enoate]
1 to 3	25 to 250 nM	1 to 10 ×10⁻⁶ cm/s	CCCCCNC(=O)/C=C/CC[C@H](NC(=O)c1nc2ccccc2s1)C(=O)Nc1cccn(CC(=O)NC23CC(C2)C3)c1=O [III-142, (S,E)-6-(benzo[d]thiazole-2-carboxamido)-N7-(1-(2-(bicyclo[1.1.1]pentan-1-ylamino)-2-oxoethyl)-2-oxo-1,2-dihydropyridin-3-yl)-N1-pentylheptyl-2-enediamide]
3 to 5	25 to 250 nM	< 1 ×10⁻⁶ cm/s	COC(=O)/C=C/CC[C@H](NC(=O)c1oc2ccccc2c1C)C(=O)Nc1cccn(CC(=O)NC2(C#N)C3CC4CC(C3)CC2C4)c1=O (stereo partly drawn) [III-43, (S,E)-methyl 7-(1-(2-(2-carbonitrileadamantane-2-amino)-2-oxoethyl)-2-oxo-1,2-dihydropyridin-3-ylamino)-6-(3-methylbenzofuran-2-carboxamido)-7-oxohept-2-enoate]
< 1	250 to 1500 nM	< 1 ×10⁻⁶ cm/s	Cc1nc2ncccc2cc1C(=O)N[C@@H](CC/C=C/C(=O)NC1CCCC1)C(=O)Nc1cccn(CC(=O)NC23CC(C2)C3)c1=O [III-146, (S,E)-N7-(1-(2-(bicyclo[1.1.1]pentan-1-ylamino)-2-oxoethyl)-2-oxo-1,2-dihydropyridin-3-yl)-N1-cyclopentyl-6-(2-methyl-1,8-naphthyridine-3-carboxamido)hept-2-enediamide]

Structure (SMILES)	logD [1]	IC50 [2]	Papp [3]
COC(=O)/C=C/CC[C@H](NC(=O)C1CN2CCC1CC2)C(=O)Nc1cccn(CC(=O)NC2C3CC4CC(C3)CC2C4)c1=O (stereo partly drawn) [III-32, (S,E)-methyl 7-(1-(2-(2-adamantylamino)-2-oxoethyl)-2-oxo-1,2-dihydropyridin-3-ylamino)-7-oxo-6-(quinuclidine-3-carboxamido)hept-2-enoate]	3 to 5	25 to 250 nM	< 1 ×10⁻⁶ cm/s
